From paper PMC4198181, “Gold(I) Complexes of 9-Deazahypoxanthine as Selective Antitumor and Anti-Inflammatory Agents” (PLoS ONE, 2014) come the findings set out here.

Each structure is given as a SMILES string.

Assay [1] has as its system HeLa cervix epitheloid carcinoma cells. The assay is described as follows: MTT in vitro cytotoxicity, HeLa. Type of assay: cell-based, human. As to conditions: 24 h treatment, read-out: IC50±S.E., HeLa. How it is done: (§1) In vitro cytotoxic activity was determined by the MTT assay in human breast adenocarcinoma (MCF7; ECACC no. 86012803), human osteosarcoma (HOS; ECACC no. 87070202), lung carcinoma (A549; ECACC no. 86012804), malignant melanoma (G361; ECACC no. 88030401), cervix epitheloid carcinoma (HeLa; ECACC no. 93021013), ovarian carcinoma (A2780; ECACC no. 93112519), cisplatin-resistant ovarian carcinoma (A2780R; […] ECACC no 105092802) cancer cell lines, purchased from European Collection of Cell Cultures (ECACC). […] The primary culture of human hepatocytes (HEP220, batch number HEP220819) was obtained from Biopredic International (France). The culture medium was Williams and HAM's F-12 (1∶1) supplemented with penicillin, streptomycin, ascorbic acid, linoleic acid, holo-transferin, ethanolamine, glucagon, insulin, dexamethasone, pyruvate, glucose, glutamine, amphotericin. The medium was enriched for plating with 2% foetal calf serum (v/v). The medium was exchanged for a serum-free medium the day after and the culture was stabilized for additional 24 h. Thereafter, the cells were ready for treatments. […] The MTT assay was performed spectrophotometrically at 540 nm (TECAN, Schoeller Instruments LLC). The cytotoxicity data were expressed as the percentage of viability, where 100% represented the treatments with vehicle (0.1% DMF or 0.1% DMSO). The cytotoxicity data from the cancer cell lines were acquired from three independent experiments (conducted in triplicate) using cells from different passages. The IC50 values were calculated from viability curves. The results are presented as arithmetic means±standard error of the mean (S.E.).

Assay [2] relates to 22Rv1 prostate carcinoma cells. The assay is described as follows: MTT in vitro cytotoxicity, 22Rv1. Type of assay: cell-based, human. To be noted: 24 h treatment, read-out: IC50±S.E., 22Rv1. How it is done:
as §1

Assay [3] has as its system λ-carrageenan-induced hind paw edema. The assay can be described thus: Carrageenan-induced hind paw edema. Type of assay: in vivo, Wistar-SPF rats. How it is done: Wistar-SPF (6–8 weeks male) rats were obtained from AnLab, Ltd. (Prague, Czech Republic). The animals were kept in plexiglass cages at the constant temperature of 22±1°C and relative humidity of 55±5% for at least 1 week before the experiment. They were given food and water ad libitum. All the experimental procedures were performed according to the National Institutes of Health (NIH) Guide for the Care and Use of Laboratory Animals. In addition, all the tests were conducted under the guidelines of the International Association for the Study of Pain [61]. After a one-week adaptation period, male Wistar-SPF rats (200–250 g) were randomly assigned to five groups (n = 7) of the animals in the study. The first, control group, received 25% DMSO (v/v in water, intraperitoneal; i.p.). The next three groups were pretreated with complexes 2, 4 and 5, and involved into the carrageenan-treatment. The fifth group was treated with a non-steroidal anti-inflammatory drug Indomethacin (5 mg/kg), which served as a positive control group (Indomethacin + carrageenan).
The carrageenan-induced hind paw edema model was used for the determination of anti-inflammatory activity. Animals were i.p. pretreated with complexes 2, 4, and 5 (the dosages of the individual complexes were adjusted to contain the same amount of gold as in 10 mg/kg dose of Auranofin), Indomethacin (5 mg/kg), or 25% DMSO (v/v in water) 30 min prior to the injection of 1% λ-carrageenan solution (50 µL) into the plantar side of right hind paws of the rats. The paw volume was measured immediately after the carrageenan injection (this value was set-up as baseline value for the hind paw volume) and during the next 6 h after the administration of the edematogenic agent using a plethysmometer (model 7159, Ugo Basile, Varese, Italy). The degree of swelling was evaluated as a percentage of the change of the volume of the right hind paw after the carrageenan treatment from the baseline volume. A non-steroidal anti-inflammatory drug Indomethacin was used as a positive control and the obtained data were also compared with the previously reported profile of antiedematous activity for Auranofin [38]. After 6 h, the animals were sacrificed and the edematous feet were dissected, the tissue from the plantar parts was extracted, fixed and stained by a standard hematoxylin/eosin (HE) staining for cytological evaluation of polymorphonuclear cells infiltration.
The statistically significant differences between individual groups during anti- inflammatory testing were evaluated using a one-way ANOVA test for statistical analysis, followed by Tukey's post-hoc test for multiple comparisons. GraphPad Prism 5.02 (GraphPad Software Inc., San Diego, CA, USA) was used to perform the analysis. The results are presented as arithmetic means±S.E. values.

The subject of assay [4] is G361 malignant melanoma cells. The assay is described as follows: MTT in vitro cytotoxicity, G361. To be noted: 24 h treatment, read-out: IC50±S.E., G361. Type of assay: cell-based, human. How it is done: as §1
[5] abbreviates: i.p., dose equivalent in gold to 10 mg/kg Auranofin.

In the case of `[Au][n]1ccc2ncnc(OCCc3ccccc3)c21.c1ccc(P(c2ccccc2)c2ccccc2)cc1` [complex 5], the values for the IC50 in assay [1], in assay [2] and in assay [4] were 22.8 ± 0.5 µM, 3.7 ± 0.1 µM and 3.5 ± 0.2 µM, respectively. Further, the “overall antiedematous / anti-inflammatory activity” value in assay [3] (setting [5]) is “inactive”.
For the compound `CC(C)Oc1ncnc2cc[n]([Au])c12.c1ccc(P(c2ccccc2)c2ccccc2)cc1` [complex 2, [Au(L2)(PPh3)]], the values for the IC50 in assay [1], in assay [2] and in assay [4] were 16 ± 0.2 µM, 4 ± 0.1 µM and 3.4 ± 0.1 µM, respectively. Also, in assay [3] (after 180 min, p<0.001, Auranofin profile from ref 38), the “antiedematous effect compared with Auranofin” value is reported as “even better than that of gold-containing metallodrug Auranofin”. Further, the “overall antiedematous / anti-inflammatory activity” value in assay [3] (setting [5]) was “significant anti-inflammatory effects”. Also, in assay [3] (i.p., dose equivalent in gold to 10 mg/kg Auranofin, 30 min before carrageenan), the “antiedematous activity profile up to 180 min after carrageenan” value is “very similar pharmacological profiles of complexes 2 and 4 with the reference drug Indomethacin”. In addition, the “antiedematous activity after 180 min” value in assay [3] (i.p., dose equivalent in gold to 10 mg/kg Auranofin, up to 6 h) was “elimination of hind paw swelling”.
